In assay [1] the test system is proteolytic cleavage of Probe #102 (cathepsin L, CTSL). Briefly: protease inhibitor profiling of Probe #102 cleavage in NASH and healthy plasma. It counts as biochemical, mice. Particulars: for effect on Probe #102 signal: NASH and healthy plasma. As for the experimental part:
For this experiment, all plasma samples were prepared individually and diluted 1/10e in PBS with inhibitor added directly to the samples. Inhibitor was prepared at 15× concentration to final. Substrates were diluted in DI water at 18 uM, such that the final concentration on the plate would be 6 uM. All samples were prepared such that their last dilution on the plate would not affect the desired final concentration. 10 ul of each individual sample was pipetted into their corresponding wells, and the plate was then spun down in the centrifuge at 1500 RPM for 30 seconds to coat the bottom of each well with the sample. 5 ul of the 18 uM substrate solution was pipetted into each well being used on a 384 well plate, and then the plate was spun down in the centrifuge at 1500 rpm for 30 seconds. The plate was placed immediately in the plate reader at 37° C. for a 30-minute-long fluorescence kinetic read at 485/535 extended gain.
To assess the proteolytic cleavage pattern of Probe #102, samples were tested using a pool of broad inhibitors for serine, cysteine, threonine, MMP and aspartic protease family members (broad inhibitor) to assess general protease activity, AEBSF for serine proteases, E64 for cysteine proteases, CTSi for broad cathepsin inhibition of cathepsins L, S, K and B, or specific inhibitors for cathepsin K (L00625), for cathepsin L (SID) or cathepsin B (CA074).

The test system of assay [2] is carboxylesterase 1, phospholipase A2 and lipoprotein lipase. As to the kind of experiment: spiked recombinant enzymes in human plasma with resorufin oleate as substrate. The class given is biochemical.
Assay [3] concerns caspase activity. Briefly: ex vivo probe cleavage in plasma of Jo2 fulminant hepatitis mice. The class given is biochemical. To be noted: mouse plasma 3 hours after Jo2 injection. As to the method:
Fulminant hepatitis is induced after injection intraperitoneal of monoclonal antibody anti-CD95 (Jo2, BD biosciences, 4 ug/animal), and mouse plasma samples were collected 3 hours after Jo2 injection.

Assay [4] concerns host response and SARS-COV2 proteases. Briefly: probe cleavage in K2 EDTA and Lithium Heparin plasma, COVID vs healthy. It counts as biochemical.
Assay [5] concerns cathepsin and/or MMP protease activities. Briefly: probe cleavage in plasma of healthy, NASH regression and NASH progression mice. The class given is biochemical. Particulars: K2 EDTA plasma at 20 weeks. The source says: Plasma samples were collected from all animals at 20 weeks.
The probes showing the most differentiation in NASH were linked to cathepsin and/or MMP protease activities.

In assay [6] the test system is NASH-related proteases. As to the kind of experiment: ex vivo fluorescent probe cleavage (RFU/min) in K2 EDTA plasma, NASH (CDAHFD) vs healthy (CD) mice. The class given is biochemical. To be noted: n=10 samples and pooled plasma. As for the experimental part: All animals were used in accordance with animal care guidelines. Plasma was obtained from these blood samples by centrifugation at 3,500 RPM for 20 min at 4° C. The plasma was stored at −80° C. until it was needed for experimental purposes.
Samples were mixed with protease substrates and quenchers/reporters in 96-well plates. The 96-well plates were read on a Biotech Synergy H1, using 465,535 excitation/emission settings.
Probes measuring cathepsin activity were 3-fold higher in protease cleavage kinetics in mice with NASH compared to healthy mice.
A single plasma sample was contacted with the probes for each predetermined protease to provide a multiplex assessment of protease activity in the sample.

For assay [7], the system named is Granzyme B. As to the kind of experiment: probe cleavage in COVID positive and COVID negative swab samples. It counts as biochemical.
Setting [8] is: K2 EDTA and Lithium Heparin plasma sets.

Primed or numbered codes have the meaning given here. Ends that are not written are not given here. PEG2′ = not defined here

17 compounds from patent publication US20250092437A1, “DISEASE DETECTION WITH COMBINATORIAL BIOMARKERS” (priority 2021, published 2025) can be followed below.

As to `NCCc1ccc(S(=O)(=O)F)cc1` [AEBSF], in assay [1] (Probe #102, NASH plasma), the “decrease of NASH signal” value came out at 65%. In addition, the “decrease of healthy signal” value in assay [1] (Probe #102, healthy plasma) was 60%.
For `CCCNC(=O)[C@H]1O[C@@H]1C(=O)N[C@H](C(=O)N1CCC[C@H]1C(=O)O)[C@@H](C)CC` [CA074], the “effect on Probe #102 signal” value in assay [1] is “did not significantly decrease signal”.
Take `CC(C)C[C@H](NC(=O)[C@H]1O[C@@H]1C(=O)O)C(=O)NCCCCN=C(N)N` [Probe E64, E64]: the “effect on Probe #102 signal” value in assay [1] was “decreased NASH signal significantly”.
Same read-out and setting: the result for `CN1CCN(c2nc(-c3ccc(C(=O)NC4(C(=O)NCC#N)CCCCC4)cc3)cs2)CC1` [Probe L006235] reads “did not significantly decrease signal”.
`CCCC(=O)O` [butyrate]: in assay [2], the “suitability as substrate for enzyme detection” value is “promising for detection of broad range of enzymes”.
“Probe #8: Caspase centric probe (VDVAD; not fully specified; 5-FAM, CPQ2 quencher, PEG2, D-Lys-D-Lys-GC)”: the “contrast between healthy and Jo2 samples” value in assay [3] was “contrast that is specific and sensitive to the Jo2 model”.
For the compound “Probe #18: a Neutrophil elastase substrate (GAAPVGK; also: 5-FAM, CPQ2 quencher, PEG2-kk-GC, places not given here)”, the “differential cleavage between COVID and healthy samples” value in assay [4] (setting [8]) is “demonstrated contrast in both sets”.
The same measure, in the same setting: the result for “Probe #84: a Furin substrate (GRVKRGLAGK; also: 5-FAM, CPQ2 quencher, PEG2-kk-GC, places not given here)” reads “demonstrated contrast in both sets”.
With “Probe #96: probe differentiating healthy, regression and NASH plasma samples ({FAM}-GRPLALWESQG-{K(CPQ2)-PEG2′-dK-Gly-Cys}; not fully specified; printed as (FAM)-GRPLALWESQG-K(CPQ2)-PEG2-k-GC)”, in assay [5], the “differentiation among healthy, regression and NASH plasma samples” value (“differentiation among healthy” below) is “can differentiate”.
On to “Probe #102: a CTSL sensing probe; fluorescent reporter and quencher peptide probe (GKPILFFRLKG; also: FAM (position not given here), K(CPQ2) quencher (position not given here), PEG2-kk-GC (attachment not given here))”, for which the “what the measured rate of fluorescence increase is ascribed to” value in assay [6] was “can be ascribed to protease activity and to NASH disease”. In addition, the “protease whose activity the probe responds to” value in assay [1] (inhibitor experiments FIG. 30D-F) was “specifically responds to the activity of cathepsin L (CTSL)”. The “differentiation among healthy” value in assay [5] is listed as “can differentiate”.
In the case of “Probe #409: the SARS CoV2 coronavirus substrate (SARS-COV2 3C protease) (GTSAVLQSGFRKGK; also: 5-FAM, CPQ2 quencher, PEG2-kk-GC, places not given here)”, in assay [4] (K2 EDTA samples), the “differential cleavage between COVID and healthy samples” value was “modest contrast”.
“Probe #428: probe differentiating healthy, regression and NASH plasma samples ({FAM}-GDRRKKLTQG-{K(CPQ2)-PEG2′-dK-dK-Gly-Cys}; not fully specified; printed as (FAM)-GDRRKKLTQG-K(CPQ2)-(PEG2)-DLys-DLys-GC)”: in assay [5], the “differentiation among healthy” value is given as “can differentiate”.
With “Probe #462: a MMP8 substrate (GKKAKRNALG; also: FAM (position not given here), K(CPQ2) (position not given here), PEG2, D-Lys-D-Lys-GC (attachment not given here))”, the “differential cleavage between COVID and healthy samples” value in assay [4] (setting [8]) was “demonstrated contrast in both sets”.
For the compound “Probe #492: probe whose fluorescence increase is ascribed to protease activity and NASH disease in mice plasma ({FAM}-GQRANSIRVTWG-{K(CPQ2)-PEG2′-dK-dK-Gly-Cys}; not fully specified; printed as (FAM)-GQRANSIRVTWG-K(CPQ2)-(PEG2)-DLys-DLys-GC)”, the “what the measured rate of fluorescence increase is ascribed to” value in assay [6] was “can be ascribed to protease activity and to NASH disease”. Also, in assay [5], the “differentiation among healthy” value is given as “can differentiate”.
Consider “Probe #520: probe differentiating healthy, regression and NASH plasma samples (GKPISLISSG; not fully specified; 5FAM, K(CPQ2), PEG2-GC)”, for which the “differentiation among healthy” value in assay [5] was “can differentiate”.
Take “Probe #647: Caspase centric probe; signal measures the activity of protease Granzyme B (GAIEPDSGG; also: 5FAM (position not given here), Lys(CPQ2) (position not given here), PEG2, D-Lys-D-Lys, GC-NH2 (attachment not given here))”: the “differentiation among healthy” value in assay [5] is given as “can differentiate”. Besides, the “contrast between healthy and Jo2 samples” value in assay [3] was “contrast that is specific and sensitive to the Jo2 model”. The “number of active samples, COVID+” value in assay [7] (adjusted RFU across timepoints, COVID+) worked out at 7 samples. Also, in assay [7] (adjusted RFU across timepoints, COVID-), the “number of active samples, COVID-” value is on record as 1 samples. Also, in assay [7] (inhibition experiments, healthy vs COVID samples), the “protease whose activity the probe signal measures” value is “measures the activity of protease Granzyme B”. Moreover, in assay [7] (swab samples in saline), the “differentiation between COVID+ and COVID- samples” value is given as “key differentiator”.
With Resorufin oleate, the “suitability as substrate for enzyme detection” value in assay [2] was “promising for detection of broad range of enzymes”.
